Results reported in patent publication US9856237B2, “Pyrazine derivatives” (TEIJIN PHARMA LIMITED, priority 2014, dated 2018).
pIC50: −log10 of the molar value.

Legend:
human URAT1 = target: T1, human URAT1 (Homo sapiens, UniProt Q96S37); assay: Test for inhibition of uric acid transport using human URAT1-expressing cells; assay type: cell-based; conditions: HEK 293 cells expressing human URAT1; 14C-labeled uric acid 25 μM; uptake 37° C. for 5 min; read-out: Inhibitory activity (IC50, concentration at which the uric acid transport rate is inhibited by 50%)
T1 construct: Full-length cDNA of human URAT1 (hURAT1); host or cells: HEK 293 cells, stably transfected and selected by Geneticin resistance
T1 sequence (Q96S37 1-553): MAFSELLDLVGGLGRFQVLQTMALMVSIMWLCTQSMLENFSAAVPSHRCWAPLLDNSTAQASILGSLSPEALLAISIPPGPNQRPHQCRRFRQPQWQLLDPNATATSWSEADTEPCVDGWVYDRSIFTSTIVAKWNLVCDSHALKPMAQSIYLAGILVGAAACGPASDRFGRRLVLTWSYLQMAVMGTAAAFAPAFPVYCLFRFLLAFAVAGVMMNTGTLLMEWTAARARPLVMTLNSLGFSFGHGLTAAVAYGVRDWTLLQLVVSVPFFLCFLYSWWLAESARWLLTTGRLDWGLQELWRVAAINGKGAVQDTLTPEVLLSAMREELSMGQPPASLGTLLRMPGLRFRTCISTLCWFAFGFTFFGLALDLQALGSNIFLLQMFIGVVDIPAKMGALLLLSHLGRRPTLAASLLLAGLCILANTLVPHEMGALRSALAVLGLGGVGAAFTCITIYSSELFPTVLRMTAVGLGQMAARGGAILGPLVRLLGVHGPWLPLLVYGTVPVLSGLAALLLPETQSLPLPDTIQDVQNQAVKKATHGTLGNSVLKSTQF
Protocol: Test for Inhibition of Uric Acid Transport Using Human URAT1-Expressing Cells
A test compound was dissolved in DMSO (produced by Sigma) to a concentration of 20 mM and was subsequently used by adjusting the concentration to a desired value for use.
Full-length cDNA of human URAT1 (hURAT1) (produced by OriGene Technologies, Inc., NCBI Reference Sequence: NM-144585) was subcloned into an expression vector, pCMV6-Kan/Neo (produced by OriGene Technologies, Inc.), and human URAT1 genes were transfected into human embryonic kidney-derived cells (HEK 293 cells) by a liposome method using Lipofectamine 2000 (produced by Invitrogen Corporation), whereupon HEK 293 cells expressing human URAT1 genes were selected on the basis of Geneticin resistance. Functional expression of human URAT1 genes was confirmed by using transport of ^14C-labeled uric acid into the cells as an index.
The HEK 293 cells expressing human URAT1 were seeded in a 24-well cell culture dish to a density of 3×10^5 cells/mL/well and were cultured in Dulbecco's modified Eagle's medium (D-MEM medium) containing 10% fetal bovine serum at 37° C. for 2 days. Thereafter, the following test for inhibition of uric acid transport was performed.
After the medium was removed by aspiration from each well, the cells were replaced with a solution obtained by substituting NaCl in Hanks' Balanced Salt Solution (HBSS) with Na gluconate (hereinafter, HBSS/Na-gluconate), and the cells were preincubated at 37° C. for about 10 minutes. After removing the HBSS/Na-gluconate by aspiration, a ^14C-uric acid solution containing various concentrations of the Example compound listed in Table 4 and a radioactive ligand (^14C-labeled uric acid; final concentration 25 μM) was added, and an uptake reaction was carried out by incubating at 37° C. for 5 min. After the reaction, the ^14C-labeled uric acid was removed by aspiration and the cells were washed three times with ice-cooled HBSS. The HEK 293 cells expressing human URAT1 were lysed in a 0.2 mol/L aqueous NaOH solution (hereafter, the cell sample) and sampled from the well. The cell sample and a liquid scintillation cocktail, ULTIMA GOLD (produced by PerkinElmer, Inc.) were mixed, and the radioactivity was measured by a liquid scintillation counter (manufactured by Beckman Coulter, Inc.).
The uric acid transport rate of the Example compound at each concentration (% of control uptake) was calculated relative to the radioactivity (radioactivity in human URAT1 expressing HEK 293 cells without addition of the Example compound (DMSO addition)) showing URAT1-specific uric acid transport as 100%, and the concentration (IC50) of the Example compound at which the uric acid transport rate is inhibited by 50% was determined. In addition, the symbols (*, **, and ***) in the table represent the following inhibitory activity values: • IC50≦0.2 μM: *** • 0.2 μM<IC50≦2 μM: ** • 2 μM<IC50≦20 μM: *

cebus apella = assay: Testing drug efficacy in Cebus apella (uric acid excretion rate); assay type: in vivo; conditions: 3 mg/kg to 30 mg/kg in 0.5% methylcellulose, from the nasal cavity to the stomach
Protocol: Testing Drug Efficacy in Cebus Apella A test compound (3 mg/kg to 30 mg/kg) dispersed in a 0.5% methylcellulose solution was administered to cebus apella from the nasal cavity to the stomach using a disposable catheter and a syringe barrel. Blood samples were taken before administration and 30 minutes, 1 hour, 2 hours, 4 hours, 8 hours, 12 hours, and 24 hours after administration; and urine samples were collected for the time intervals of from immediately after to 4 hours after administration, from 4 hours to 8 hours after administration, from 8 hours to 16 hours after administration, and from 16 hours to 24 hours after administration. Concentrations of uric acid and creatinine in the blood and urine samples collected were measured by an automatic analyzer (JEOL Ltd.). Uric acid and creatinine were measured respectively using L-type Wako UA•F (Wako Pure Chemicals Industries, Ltd.) and L-type Creatinine F (Wako Pure Chemicals Industries, Ltd.). Uric acid clearance was calculated from the uric acid concentrations in blood and urine and, similarly, creatinine clearance was calculated from the creatinine concentrations. Based on these values, the uric acid excretion rate was determined according to the following equation: Uric acid excretion rate (%)=(uric acid clearance/creatinine clearance)×100

SMILES	pIC50 (human URAT1)	activity to promote uric acid excretion (cebus apella)
Cc1cncc(-c2nc(C)c(C(=O)O)n2Cc2cc(Cl)ccc2Cl)n1 [Compound A2, 1-(2,5-dichlorobenzyl)-4-methyl-2-(6-methylpyrazin-2-yl)-1H-imidazole-5-carboxylic acid]	≥ 6.70	
CCc1cncc(-c2nc(C)c(C(=O)O)n2Cc2cc(Cl)ccc2Cl)n1 [Compound A3, 1-(2,5-dichlorobenzyl)-2-(6-ethylpyrazin-2-yl)-4-methyl-1H-imidazole-5-carboxylic acid]	≥ 6.70	
Cc1nc(-c2cncc(-c3ccccc3)n2)n(Cc2cc(Cl)ccc2Cl)c1C(=O)O [Compound A4, 1-(2,5-dichlorobenzyl)-4-methyl-2-(6-phenylpyrazin-2-yl)-1H-imidazole-5-carboxylic acid]	≥ 6.70	
CCOc1cncc(-c2nc(C)c(C(=O)O)n2Cc2cc(Cl)ccc2Cl)n1 [Compound A7, 1-(2,5-dichlorobenzyl)-2-(6-ethoxypyrazin-2-yl)-4-methyl-1H-imidazole-5-carboxylic acid]	≥ 6.70	
Cc1nc(-c2cncc(C#N)n2)n(Cc2cc(Cl)ccc2Cl)c1C(=O)O [Compound A8, 2-(6-cyanopyrazin-2-yl)-1-(2,5-dichlorobenzyl)-4-methyl-1H-imidazole-5-carboxylic acid]	≥ 6.70	
Cc1nc(-c2cncc(C3CC3)n2)n(Cc2cc(Cl)ccc2Cl)c1C(=O)O [Compound A10, 2-(6-cyclopropylpyrazin-2-yl)-1-(2,5-dichlorobenzyl)-4-methyl-1H-imidazole-5-carboxylic acid]	≥ 6.70	
Cc1nc(-c2cnccn2)n(Cc2cc(Cl)sc2Cl)c1C(=O)O [Compound A11, 1-((2,5-dichlorothiophene-3-yl)methyl)-4-methyl-2-(pyrazin-2-yl)-1H-imidazole-5-carboxylic acid]	≥ 6.70	excellent activity
Cc1cncc(-c2nc(C)c(C(=O)O)n2Cc2cc(Cl)sc2Cl)n1 [Compound A12, 1-((2,5-dichlorothiophene-3-yl)methyl)-4-methyl-2-(6-methylpyrazin-2-yl)-1H-imidazole-5-carboxylic acid]	≥ 6.70	

The next lines start with results.

pIC50 (human URAT1)	SMILES	activity to promote uric acid excretion (cebus apella)
≥ 6.70	Cc1nc(-c2cnccn2)n(Cc2cc(Cl)ccc2Cl)c1C(=O)O [Compound A1, 1-(2,5-dichlorobenzyl)-4-methyl-2-(pyrazin-2-yl)-1H-imidazole-5-carboxylic acid]	
≥ 6.70	COc1cncc(-c2nc(C)c(C(=O)O)n2Cc2cc(Cl)ccc2Cl)n1 [Compound A5, 1-(2,5-dichlorobenzyl)-2-(6-methoxypyrazin-2-yl)-4-methyl-1H-imidazole-5-carboxylic acid]	
≥ 6.70	Cc1nc(-c2cncc(Oc3ccccc3)n2)n(Cc2cc(Cl)ccc2Cl)c1C(=O)O [Compound A6, 1-(2,5-dichlorobenzyl)-4-methyl-2-(6-phenoxypyrazin-2-yl)-1H-imidazole-5-carboxylic acid]	
≥ 6.70	Cc1nc(-c2cncc(C(C)C)n2)n(Cc2cc(Cl)ccc2Cl)c1C(=O)O [Compound A9, 1-(2,5-dichlorobenzyl)-2-(6-isopropylpyrazin-2-yl)-4-methyl-1H-imidazole-5-carboxylic acid]	
5.70 to 6.70	COc1cccc(F)c1Oc1cncc(-c2nc(C)c(C(=O)O)n2Cc2cc(Cl)ccc2Cl)n1 [Compound A13]	
≥ 6.70	COc1cccc(F)c1Oc1cncc(-c2nc(C)c(C(=O)O)n2Cc2ccccc2)n1 [Compound A14, 1-benzyl-2-(6-(2-fluoro-6-methoxyphenoxy)pyrazin-2-yl)-4-methyl-1H-imidazole-5-carboxylic acid]	
≥ 6.70	O=C(O)c1ccc(-c2cnccn2)n1Cc1cc(Cl)ccc1Cl [Compound A15, 1-(2,5-dichlorobenzyl)-2-(pyrazin-2-yl)-1H-pyrrole-5-carboxylic acid]	
